Tests used:
[1] = test system: NF-kB-dependent TNF-α secretion; assay: TNF-α secretion assay (counterscreen); assay type: cell-based; conditions: Homo sapiens; THP-1 cells, Pam3CSK4-stimulated, 3 hours, HTRF
Summary of the method: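 Undifferentiated THP-1 cells, rested overnight, given compound then stimulated with 1 μg/mL LPS or 100 ng/mL Pam3CSK4 for 3 hours. Supernatant TNF-α measured by HTRF; IC50 from four-parameter logistic fit of % inhibition versus concentration, with viability monitored.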

THP-1 cells = assay: Readout of pyroptosis (PrestoBlue cell viability reagent) in the IL-1β secretion assay; assay type: cell-based; conditions: Homo sapiens; PMA-differentiated THP-1 cells, nigericin; values marked * in the IL-1β column
Description: Monocytic THP-1 cells (ATCC: TIB-202) were maintained according to providers' instructions in RPMI media (RPMI/Hepes+10% fetal bovine serum+Sodium Pyruvate+0.05 mM Beta-mercaptoethanol (1000× stock)+Pen-Strep). Cells were differentiated in bulk with 0.5 μM phorbol 12-myristate 13-acetate (PMA; Sigma #P8139) for 3 hours, media was exchanged, and cells were plated at 50,000 cells per well in a 384-well flat-bottom cell culture plates (Greiner, #781986), and allowed to differentiate overnight. Compound in a 1:3.16 serial dilution series in DMSO was added 1:100 to the cells and incubated for 1 hour. The NLRP3 inflammasome was activated with the addition of 15 μM (final concentration) Nigericin (Enzo Life Sciences, #BML-CA421-0005), and cells were incubated for 3 hours. 10 μL supernatant was removed, and IL-1p levels were monitored using an HTRF assay (CisBio, #62IL1PEC) according to manufacturers' instructions. Viability and pyroptosis was monitored with the addition of PrestoBlue cell viability reagent (Life Technologies, #A13261) directly to the cell culture plate.

| Compound | IC50 [1] | IC50 (THP-1 cells) |
| --- | --- | --- |
| CC(C)c1nn(CC(=O)N[C@H]2CCC[C@@H](NC(=O)OC(C)(C)C)C2)c(=O)c2cc3sc(Cl)cc3n12 [Ex 56, tert-Butyl ((1R,3S)-3-(2-(2-chloro-5-isopropyl-8-oxothieno[2′,3′:4,5]pyrrolo[1,2-d][1,2,4]triazin-7(8H)-yl)acetamido)cyclohexyl)carbamate] | > 100 µM | > 0.33 µM |
| CC(C)(O)c1nn(CC(=O)Nc2cccc(NS(C)(=O)=O)c2)c(=O)c2cc3sc(Cl)cc3n12 [Ex 116, 2-(2-Chloro-5-(2-hydroxypropan-2-yl)-8-oxothieno[2′,3′:4,5]pyrrolo[1,2-d][1,2,4]triazin-7(8H)-yl)-N-(3-(methylsulfonamido)phenyl)acetamide] |  | 0.4 µM |
| CC(C)c1nn(CC(=O)Nc2nncs2)c(=O)c2cc3sc(Cl)cc3n12 [Ex 117, 2-(2-Chloro-5-isopropyl-8-oxothieno[2′,3′:4,5]pyrrolo[1,2-d][1,2,4]triazin-7(8H)-yl)-N-(1,3,4-thiadiazol-2-yl)acetamide] |  | 6 µM |
